{"source": "patent US7371853", "conditions": "amide bond, BOP, DCM, 25.0 °C", "note": "Read-outs that look alike come from different tables or passages of the source.", "data": [{"smiles": "COC(=O)[C@@H]1Cc2cccc(c2)OCCNC(=O)c2cc(cc(N(C)S(C)(=O)=O)c2)C(=O)N1", "values": [{"measurement": "ring closure, yield of all isomers", "setting": "from COC(=O)[C@H](Cc1cccc(OCCN)c1)NC(=O)c1cc(C(=O)O)cc(N(C)S(C)(=O)=O)c1, 2.0 h, 2 steps", "value": 30, "unit": "%"}]}, {"smiles": "COC(=O)C1Cc2cccc(c2)OC[C@H](c2ccccc2)NC(=O)c2cc(cc(N(C)S(C)(=O)=O)c2)C(=O)N1", "note": "(some centres unmarked)", "values": [{"measurement": "ring closure, yield of all isomers", "setting": "from COC(=O)C(N)Cc1cccc(OC[C@@H](NC(=O)c2cc(C(=O)O)cc(N(C)S(C)(=O)=O)c2)c2ccccc2)c1, 1.76 mM, 72.0 h", "value": 62, "unit": "%"}]}]}
